Entries after “also recorded” stand apart in the source; their conditions may differ.
How the values were obtained:
[1] = test system: prostaglandin E2 (PGE2) production by human vulvar fibroblasts; assay: In vitro LPV model: PGE2 production by patient vestibular or vulvar fibroblasts; assay type: cell-based; details: for PGE2 levels: post-treatment regimen: IL-1β 30 min first, then 5 nM for 18 hours plus booster dose for 6 hr, already activated cells, FIG. 4C; for PGE2 production: pre-treatment regimen, 5 nM, activated with IL-1β (10 pg/ml) 48 hr, vestibular and external vulvar fibroblasts, FIG. 4A
Procedure: (§1) FIGS. 4A, 4B, 4C, and 4D are a set of diagrams showing that PGE2 and IL-6 production is reduced by compounds of Formula (I). Patient vestibular or vulvar fibroblasts were pre-treated for 10 hours with Maresin land epi-Maresin 1 at a 5 nM concentration, then activated with IL-1β (Panel A; 10 pg/ml) or bradykinin (Panel B; 100 nM) for 48 hr. Culture media were collected and analyzed for PGE2 (Panel A) or IL-6 (Panel B) content. Patient fibroblasts were also activated first with IL-1β for 30 min then treated with 5 nM Maresin 1 for 18 hours, followed by a booster dose for 6 hr. Culture media were collected and analyzed for PGE2 (Panel C) or IL-6 (Panel D) content. Mean+/−SEM of n=3, ANOVA *p<0.05 vs. activation only (no compounds of Formula (I) (F (I))).
(§2) In this example, a fibroblast-based in vitro LPV model was established. Briefly, fibroblast strains were obtained from two regions (FIG. 1) of the lower genital tract of localized provoked vulvodynia (LPV) cases and pain-free controls in the manner described in Falsetta et al. Am J Obstet Gynecol 2015, vol. 213, pp. 38 e1-12 and Foster et al., Pain 2015, vol. 156, pp. 386-96.
(§3) Over 30 paired fibroblast strains obtained from LPV-afflicted cases (fulfilling Friedrich's Criteria)^25 and age/race-matched (critical variables influencing LPV),^26, 27 pain-free controls were obtained. All subjects who contributed to the library were premenopausal, denied oral corticosteroids, non-steroidal, immunomodulatory, or anti-inflammatory medication use, and reported an absence of systemic/cutaneous inflammatory conditions at the time of sample collection. Mechanical pain thresholds were determined (via a method of limits) (0.5-5 N) using a Wagner algometer. Fibroblast identity was confirmed by microscopy and fibroblast markers (vimentin, collagen); only low passage (˜4) cells are used.
(§4) In this example, assays were carried out to investigate the ability of compounds of Formula (I) to reduce pro-inflammatory and pro-pain mediator production from primary human cells in the in vitro LPV model described in Example 1.
(§5) The inventors used one of two treatment regimens proven effective in vulvar fibroblasts and other cells at low/nanomolar concentrations (1-100 nM): 1) overnight pre-treatment, followed by another treatment 30 min prior to stimulation with pro-inflammatory stimuli for 48 hr with a third dose of a compound of Formula (I) at 24 hr post-challenge, or 2) post-treatment a compound of Formula (I) after a 30 min pre-treatment with inflammatory stimuli, followed by a booster dose 18 hr later. Both treatment regimens are of interest, as compounds of Formula (I) are active throughout the inflammatory process.^5-7 Even the compound of Formula (I) administered after LPV onset are likely to prevent the worsening or spread of LPV pain.

[2] = test system: interleukin-6 (IL-6) production by human vulvar fibroblasts; assay: In vitro LPV model: IL-6 production by patient vestibular or vulvar fibroblasts; assay type: cell-based; details: for IL-6 levels: post-treatment regimen: IL-1β 30 min first, then 5 nM for 18 hours plus booster dose for 6 hr, already activated cells, FIG. 4D; for IL-6 production: pre-treatment regimen, 5 nM, activated with bradykinin (100 nM) 48 hr, vestibular and external vulvar fibroblasts, FIG. 4B
Procedure: as §1, §2, §3, §4, §5

[3] = test system: PGE2 production from mouse vulvar tissue; assay: Mouse vulvar explants (4 mm punch biopsy) stimulated with IL-1β: PGE2 production; assay type: cell-based; details: FIG. 5
Procedure: FIG. 5 is a diagram showing that compounds of Formula (I) (F (I)) inhibit PGE2 production from mouse vulvar tissue. Mouse vulvar tissue (4 mm punch biopsies) was collected and bisected then pre-treated in culture medium with either Maresin 1 at indicated concentrations for 18 hours, followed by an additional 18 hours stimulation with IL-1β (10 pg/ml). Culture medium was collected and analyzed for PGE2 content. Mean+/−SEM; n=3 replicate cultures. ANOVA * p<0.05 vs. vehicle.
Inventors first confirmed that mouse vulvar tissues responded to compounds of Formula (I) treatment in vitro by culturing mouse vulvar explants (4 mm punch biopsy). The explants were stimulated with IL-1β, and then assays were carried to assess the ability of Maresin 1 to reduce PGE2 production under the established pre-treatment regimen.
It was also determined that these mice expressed several SPM receptors (e.g., ALX, GPR18). Therefore, inventors proceeded with testing responses to compounds of Formula (I) in the mouse model.

[4] = test system: vulvar allodynia (pain threshold); assay: Mouse model of LPV: Zymosan-induced vulvar allodynia, pain threshold by electronic von Frey; assay type: in vivo, C57BL/6 mouse; details: C57BL/6 mice with established Zymosan-induced allodynia, topical daily 1 μg/mouse/day for 4 weeks
Description: FIGS. 6A, 6B and 6C are a set of photographs and diagrams showing pain testing for in vivo mouse vulvodynia model. Panel A: After Zymosan injection, inflammation and redness become apparent. Arrow indicates injection site. Panel B: Image showing how an electronic von Frey hair (Mousemet) is used to apply force to the mouse vulva. Panel C: Schematic of in vivo mouse model to establish then resolve vulvar allodynia. FIG. 7 is a diagram showing representative pain profile for a C57BL/6 mouse. […] In the mouse model, Zymosan (a pro-inflammatory yeast cell wall preparation) was used to induce sustained vulvar allodynia, measured by pain threshold testing. Inventors initially used a manual von Frey system (MvF)^24, but later switched to an electronic system as detailed herein. […] However, inventors implemented several modifications to improve the robustness of the model including the following: 1) use a genetically tractable inbred strain; 2) validation of the use of an electronic von Frey (EvF) system; 3) assessment of the impact of behavioral conditioning on pain response; 4) weekly collection of vulvovaginal lavages for pro-inflammatory mediator quantification; and 5) testing the ability of a selected compound of Formula (I) (e.g., Maresin 1) to modulate pain and inflammation in our new model. […]

[5] = test system: PGE2 in vaginal lavage; assay: Mouse model of LPV: PGE2 content in vaginal lavage; assay type: in vivo, C57BL/6 mouse; details: C57BL/6 mice with established Zymosan-induced allodynia, topical daily 1 μg/mouse/day for 4 weeks, FIG. 8
Description: FIG. 8 is a diagram showing that PGE2 in vaginal lavage is associated with pain threshold. After induction of allodynia for up to 6 weeks (indicated by reduced pain threshold, red line), Maresin 1 was applied to C57BL/6 mouse vulvas to reduce pain and increase pain threshold. PGE2 content in vaginal lavage samples (blue line) […], indicating pain-associated inflammation waning with treatment. SEM shown, n=8.
Using this approach, inventors confirmed that one could induce vulvar allodynia, measure pain responses via mechanical threshold determination, and assess treatment responses. However, inventors implemented several modifications to improve the robustness of the model including the following: 1) use a genetically tractable inbred strain; 2) validation of the use of an electronic von Frey (EvF) system; 3) assessment of the impact of behavioral conditioning on pain response; 4) weekly collection of vulvovaginal lavages for pro-inflammatory mediator quantification; and 5) testing the ability of a selected compound of Formula (I) (e.g., Maresin 1) to modulate pain and inflammation in our new model. […]

Row | SMILES | PGE2 levels [1] | PGE2 levels ([1]; listed as Maresin-1) | PGE2 production [1] | IL-6 levels [2] | IL-6 levels ([2]; listed as Maresin-1) | IL-6 production [2] | PGE2 responses following IL-1β treatment ([3]; pre-treated 18 hours, then 18 hours IL-1β (10 pg/ml)) | lowest dose with significant suppression of PGE2 response ([3]; pre-treatment regimen, IL-1β (10 pg/ml)) | pain threshold ([4]; FIG. 7, 8) | pain threshold ([4]; FIG. 7, 8, listed as Maresin-1) | PGE2 levels in vulvovaginal lavage [5] | PGE2 levels in vulvovaginal lavage ([5]; listed as Maresin-1)
1 | CC/C=C\C/C=C\C[C@H](O)\C=C/C=C/C=C/[C@H](O)C/C=C\CCC(=O)O [Maresin 1, 7R,14S-dihydroxy-docosa-4Z,8E,10E,12Z,16Z,19Z-hexaenoic acid] | significantly reduced | highly effective in reducing | significantly reduced | significantly reduced | highly effective in reducing | significantly reduced | significantly suppressed | 1 nM | complete restoration to the pre-induction thresholds; also recorded: values returned to baseline | increased pain thresholds | suppressed and maintained at levels below baseline | suppressing PGE2 levels
2 | CC/C=C\C/C=C\C[C@H](O)\C=C/C=C/C=C/[C@@H](O)C/C=C\CCC(=O)O [epi-Maresin 1, 7S,14S-dihydroxy-docosa-4Z,8E,10E,12Z,16Z,19Z-hexaenoic acid] |  |  | significantly reduced |  |  | significantly reduced |  |  |  |  |  | 
